Results reported in patent US4014909A, “Esters of 21-thiol steroids” (priority 1974, dated 1977).
Entries after “also recorded” stand apart in the source; their conditions may differ.

What was measured:
[1] = test system: liver, kidneys, spleen, thymus, stomach; type: in vivo, rat (Sprague-Dawley); conditions: strong dose (436 mg/kg s.c. daily), male rat; study broken off on the 14th day
[2] = Glycemia after 4 weeks treatment; type: in vivo, rat (Sprague-Dawley)
Procedure: (§1) The action on the endocrine glands and the genital tractus, and a possible ulcerogenic effect were investigated, together with the effects on the glucidic and proteic metabolisms, on the hydro-mineral equilibrium after long-term administration.
(§2) There were utilized groups of 10 male rats and ten female rats of Sprague-Dawley S.P.F. strain which have been given the products under study by sub-cateneous methods daily for four weeks.
(§3) The products were administered in suspension in 5 % carboxy-methyl-cellulose under a volume of 0.5 ml. per 100 grams of body weight, in three different doses, the animals of the reference lot receiving the same volume of the vehicle alone.
(§4) In order to confirm certain previous results of the pharmacological short-term study, there has furthermore been determined, for each lot of animals:
(§5) at the end of the treatment:
(§6) During the course of the long-term study, the JO 1016 was administered daily to the male and female rats in doses of 100 mg/kg, 250 mg/kg, 500 mg/kg by the sub-cutaneous route.
The following Tables XIV and XV indicate the results of the proportions of glycemia with the reference animals and animals treated for 4 weeks following the procedure (h)

[3] = Action on the protein metabolism: weight increase of immature rats, 96 hours; type: in vivo, rat (Wistar
Text: The action on the protein metabolism was examined by means of a test, the principle of which is as follows:
The administration of gluco-corticoids results in a disturbance of the protein metabolism, which is shown by an exaggerated protein catabolism resulting in shrinking of the tissues objectified by an inhibition of growth in weight in the young animal and a loss of body weight in the adult animal.
For this study, immature rats of Wistar strain were utilized, the initial weight of which was between 45 and 55 grams, which were distributed at random groups of 10.
The products under study were administered daily for 4 days. The animals were weighed daily during the 4 days of treatment and 24 hours after the last dose.
The products tested were administered either orally or by sub-cutaneous injection, in suspension in 5 % gum arabic for the oral route or in carboxy-methyl-cellulose at 5 % for the sub-cutaneous method, the animals of the reference group receiving the same volume of vehicle by the same method as the corresponding animals treated.
The average variation of the body weight during the 96 hours treatment was calculated for each group of animals.
The increase in weight of immature rats (45 to 55 grams) treated for 96 hours following the procedure (g) by JO 1016, by the oral or the sub-cutaneous routes (average weight at the end of the study, less the average weight at the beginning) are indicated in the following Table XVIII.

[4] = Hydro-mineral equilibrium: sodium excretion after 4 weeks treatment; type: in vivo, rat (Sprague-Dawley); conditions: male rat, 500 mg/kg s.c.
Procedure: as §1, §2, §3, §4, §5
the sodium excretion in 5 hours
as §6

[5] = test system: adrenal glands, gonads, seminal vesicles, uterine tubes; experiment: Action on the endocrine glands and the genital tractus: organ weights and histology, long-term treatment; type: in vivo, rat (Sprague-Dawley); conditions: for Ovaries weight / Seminal vesicles weight / Testicles weight / Uterine tubes weight / Adrenal glands weight: 4 weeks, N.S.
Text: as §1
The repeated administration of corticoids may result in an inhibition of the secretion of the ante-hypophysiary hormone which is shown by a lowering of the effectiveness of the target-glands (example: adrenal-glandes) and indirectly of certain organs which are under the dependence of a hormone secretion (example: genital tractus).
These studies have been carried out for some of the products according to the invention after sub-chronic administration.
as §2, §3
At the end of this study there were extracted:
(2) the gonads (testicles or ovaries);
(3) the seminal vesicles or the uterine tubes;
The samples numbered (1), (2) and (3) were immediately weighed. All the samples were then fixed for histological examination in the Bouin-Holland fixator.
as §6
After a long-term treatment by the JO 1016, following the procedure (h), the average weights of the following organs: adrenal glandes, gonads, seminal vesicles, uterine tubes are indicated in the following Table XXII

CC(=O)OCC(=O)[C@@]1(O)CC[C@H]2[C@@H]3CCC4=CC(=O)CC[C@]4(C)[C@H]3[C@@H](O)C[C@@]21C [Hydrocortisone (acetate), Hydrocortisone acetate, reference compound]
Mortality [1]: high mortality observed with the strong dose

CC(C)(C)C(=O)SCC(=O)[C@@]1(O)CC[C@H]2[C@@H]3CCC4=CC(=O)CC[C@]4(C)[C@H]3[C@@H](O)C[C@@]21C [JO 1016, Dihydroxy-11β, 17α thio-21 dioxo-3,20 pregnene-4-21 pivalate]
Glycemia, average ± standard error ([2]; female, 500 mg/kg s.c.): 1,10 ± 0,04 g/liter
Glycemia, average ± standard error ([2]; male, 100 mg/kg s.c.): 1.2 ± 0.04 g/L
Glycemia, average ± standard error ([2]; male, 250 mg/kg s.c.): 1.2 ± 0.05 g/L
Glycemia, percentage of variation and probabilities ([2]; male, 500 mg/kg s.c.): N.S.
Increase in weight of immature rats ([3]; 1 mg/rat/day, sub-cutaneous route): 17 g
Increase in weight of immature rats ([3]; 3 mg/rat/day, oral route): 14 g
Increase in weight of immature rats ([3]; 10 mg/rat/day (last line of Table XVIII (so in the source)), oral route): 8 g
Increase in weight of immature rats ([3]; 10 mg/rat/day, oral route): 11 g
Increase in weight of immature rats ([3]; 10 mg/rat/day, sub-cutaneous route): 16 g
Increase in weight of immature rats ([3]; 30 mg/rat/day, oral route): 13 g
Increase in weight of immature rats ([3]; 30 mg/rat/day, sub-cutaneous route): 16 g
Sodium excreted, average ± standard error [4]: 1,41 ± 0,116 Meq
Ovaries weight ([5]; 100 mg/kg s.c.): 38.4 mg
Seminal vesicles weight ([5]; 100 mg/kg s.c.): 328.0 mg
Testicles weight ([5]; 100 mg/kg s.c.): 1.143 g
Uterine tubes weight ([5]; 100 mg/kg s.c.): 211.8 mg
Ovaries weight ([5]; 250 mg/kg s.c.): 38.3 mg
Seminal vesicles weight ([5]; 250 mg/kg s.c.): 296.0 mg
Testicles weight ([5]; 250 mg/kg s.c.): 1.144 g
Uterine tubes weight ([5]; 250 mg/kg s.c.): 184.7 mg
Ovaries weight ([5]; 500 mg/kg s.c.): 39.3 mg
Seminal vesicles weight ([5]; 500 mg/kg s.c.): 274.6 mg
Testicles weight ([5]; 500 mg/kg s.c.): 1.207 g
Uterine tubes weight ([5]; 500 mg/kg s.c.): 165.4 mg
Adrenal glands weight ([5]; female rats, 100 mg/kg s.c.): 26.7 mg
Adrenal glands weight ([5]; female rats, 250 mg/kg s.c.): 24,5 mg
Adrenal glands weight ([5]; female rats, 500 mg/kg s.c.): 27,0 mg
Histological examination of organs ([5]; long-term s.c. treatment): has not furthermore brought into evidence any alteration of their structure; also recorded: neither atrophy nor surrenal hypertrophy; also recorded: nor modification of the functional aspect of the male and female genital organs
Adrenal glands weight ([5]; male rats, 100 mg/kg s.c.): 14.9 mg
Adrenal glands weight ([5]; male rats, 250 mg/kg s.c.): 12,3 mg
Adrenal glands weight ([5]; male rats, 500 mg/kg s.c.): 13.5 mg
